Consider four compounds from patent US9388208B2, “Pyrrolo[1,2-f][1,2,4]triazines useful for treating respiratory syncitial virus infections” (Gilead Sciences, Inc., priority 2013, dated 2016).

Data set [1] has as its system RSV strain A2. Description: Anti-RSV activity, infectious cytopathic cell protection assay in HEp-2 cells. Type of data set: cell-based, Respiratory Syncytial Virus (RSV). On the procedure:
Antiviral activity against RSV is determined using an infectious cytopathic cell protection assay in HEp-2 cells. In this assay, compounds inhibiting viral infection and/or replication produce a cytoprotective effect against the virus-induced cell killing that can be quantified using a cell viability reagent. The techniques used here are novel adaptations of methods described in published literature (Chapman et al., Antimicrob Agents Chemother. 2007, 51(9):3346-53.)
HEp-2 cells are obtained from ATCC (Manassas, VI) and maintained in MEM media supplemented with 10% fetal bovine serum and penicillin/streptomycin. Cells are passaged twice a week and kept at subconfluent stage. Commercial stock of RSV strain A2 (Advanced Biotechnologies, Columbia, Md.) is titered before compound testing to determine the appropriate dilution of the virus stock that generates desirable cytopathic effect in HEp-2 cells.
For antiviral tests, HEp-2 cells are grown in large cell culture flasks to near confluency but not fully so. The compounds to be tested are prediluted in DMSO in 384-well compound dilution plates, either in an 8 or 40 sample per plate standardized dose response format. 3-fold serial dilution increments of each test compound are prepared in the plates and test samples are transferred via acoustic transfer apparatus (Echo, Labcyte) at 100 nl per well into cell culture assay 384-well plates. Each compound dilution is transferred in single or quadruplicate samples into dry assay plates, which are stored until assay is ready to go. The positive and negative controls are laid out in opposite on ends of the plate in vertical blocks (1 column).
Subsequently, an infectious mixture is prepared using an appropriate dilution of virus stock previously determined by titration with cells at a density of 50,000/ml and 20 uL/well is added to test plates w/compounds via automation (uFlow, Biotek). Each plate includes negative and positive controls (16 replicates each) to create 0% and 100% virus inhibition standards, respectively. Following the infection with RSV, testing plates are incubated for 4 days in a 37° C. cell culture incubator. After the incubation, a cell viability reagent, Cell TiterGlo (Promega, Madison, Wis.) is added to the assay plates, which are incubated briefly, and a luminescent readout is measured (Envision, Perkin Elmer) in all the assay plates. The RSV-induced cytopathic effect, percentage inhibition, is determined from the levels of remaining cell viability. These numbers are calculated for each tested concentration relative to the 0% and 100% inhibition controls, and the EC50 value for each compound is determined by non-linear regression as a concentration inhibiting the RSV-induced cytopathic effect by 50%. Various potent anti-RSV tool compounds are used as positive controls for antiviral activity.

In data set [2] the test system is HEp-2 cells. Description: Cytotoxicity assay in HEp-2 cells. The settings on record: uninfected HEp-2 cells, 4 days, CellTiter Glo. The class given is cell-based. As for the experimental part: (§1) Cytotoxicity of tested compounds is determined in uninfected HEp-2 cells in parallel with the antiviral activity using the cell viability reagent in a similar fashion as described before for other cell types (Cihlar et al., Antimicrob Agents Chemother. 2008, 52(2):655-65.). The same protocol as for the determination of antiviral activity is used for the measurement of compound cytotoxicity except that the cells are not infected with RSV. Instead, an uninfected cell mixture at the same density is added at 20 ul/well to plates containing prediluted compounds, also at 100 nl/sample. Assay plates are then incubated for 4 days followed by a cell viability test using the same CellTiter Glo reagent addition and measurement of luminescent readouts. Untreated cell and cells treated at 2 uM puromycin (Sigma, St. Louis, Mo.) serve as 100% and 0% cell viability control, respectively. The percent of cell viability is calculated for each tested compound concentration relative to the 0% and 100% controls and the CC50 value is determined by non-linear regression as a compound concentration reducing the cell viability by 50%.

Data set [3] has as its system MT-4 cells. As to the kind of experiment: Cytotoxicity assay in MT-4 cells. The class given is cell-based. The settings on record: 5 days, Cell-Titer Glo. As for the experimental part:
(§2) The MT-4 cell line was obtained from the NIH AIDS Research and Reference Reagent Program (Germantown, Md.) and cultured in RPMI-1640 medium (Irvine Scientific, Santa Ana, Calif., Cat #9160) supplemented with 10% FBS, 100 units/mL penicillin, 100 units/mL streptomycin, and 2 mM L-Glutamine. The MT-4 cells were passaged twice per week to maintain cell densities below 0.6×10^6 cells/mL. Complete RPMI-1640 media containing 100× concentrations of 3-fold serially diluted compound, ranging from 26 nM to 530 μM, were stamped in quadruplicate into black 384-well plates. After compound addition, 2×10^3 MT-4 cells were added to each well using a MicroFlo liquid dispenser (BioTek, Winooski, Vt.) and the cells were cultured for 5 days at 37° C. in a 5% CO2 incubator. Following the incubation the cells were allowed to equilibrate to 25° C. and cell viability was determined by adding 25 μL of Cell-Titer Glo viability reagent. The mixture was incubated for 10 minutes at 25° C., and the luminescence signal was quantified on a Victor Luminescence plate reader. The CC50 value is defined as the concentration of compound that reduces cell viability by 50% as determined by the Cell-Titer Glo signal. The data were analyzed using Pipeline Pilot Plate Data Analytics Collection software (Version 7.0, Accelrys, San Diego, Calif.). CC50 values were calculated from a non-linear regression analysis using a 4-parameter sigmoidal dose-response equation: Y=Bottom+(Top−Bottom)/(1+10^[(Log CC50−X)*HillSlope]) where the Top and Bottom were fixed at 100% and 0% cell viability, respectively. CC50 values were calculated as the average±standard deviation of 3 independent experiments.

Data set [4] is described as follows: Cytotoxicity assay in HEp-2 cells. The class given is cell-based. The settings on record: human, uninfected HEp-2 cells, CellTiter Glo. On the procedure: as §1
On the technique in general: ATP-based viability assays read luminescence as a measure of living cells.

A short description of data set [5]: Cytotoxicity assay in MT-4 cells. The class given is cell-based. The conditions noted are these: human, Cell-Titer Glo. On the procedure:
as §2

Where [6] appears, read: human respiratory syncytial virus, 96 h, HEp-2 cells infected with RSV A2, 4 days, Cell TiterGlo, read-out: EC50.

Where two headings read alike, the source gives them in different places.

One may read the EC50 as the concentration giving half of the maximal effect. A word on the CC50: it is the concentration at which the toxic effect on the cells reaches its halfway point. A lower CC50 goes with harm at low concentration. In the case of `N#C[C@]1(CO)O[C@@H](c2ccc3c(N)ncnn23)[C@H](O)[C@@H]1O` [Example 1, (2R,3S,4R,5S)-5-(4-aminopyrrolo[1,2-f][1,2,4]triazin-7-yl)-3,4-dihydroxy-2-(hydroxymethyl)tetrahydrofuran-2-carbonitrile], the concentration for a half-maximal effect (EC50) in data set [1] (HEp-2 cells infected with RSV A2, 4 days, Cell TiterGlo, read-out: EC50) is 7.3 µM. Moreover, the CC50 in data set [2] is greater than 50 µM; in data set [3], greater than 53 µM.
Consider `CC(C)(C)C(=O)SCCOP(=O)(OCCSC(=O)C(C)(C)C)OC[C@@]1(C#N)O[C@@H](c2ccc3c(N)ncnn23)[C@H](O)[C@@H]1O` [Example 10, S,S′-2,2′-((((2R,3S,4R,5S)-5-(4-aminopyrrolo[1,2-f][1,2,4]triazin-7-yl)-2-cyano-3,4-dihydroxytetrahydrofuran-2-yl)methoxy)phosphoryl)bis(oxy)bis(ethane-2,1-diyl)bis(2,2-dimethylpropanethioate)], for which the concentration for a half-maximal effect (EC50) in data set [1] (human respiratory syncytial virus, HEp-2, 96 h) is 1 µM. Besides, the CC50 in data set [2] came out at 39 µM; in data set [3] it was 7.3 µM.
With `[N-]=[N+]=N[C@]1(CO)O[C@@H](c2ccc3c(N)nc(F)nn23)[C@H](F)[C@@H]1O` [Example 22, (2R,3R,4R,5S)-5-(4-amino-2-fluoropyrrolo[2,1-f][1,2,4]triazin-7-yl)-2-azido-4-fluoro-2-(hydroxymethyl)tetrahydrofuran-3-ol], the concentration giving a half-maximal response (EC50) in data set [1] (setting [6]) was 0.57 µM; in data set [1] (human respiratory syncytial virus, HEp-2 anti-RSV activity, read-out: EC50 (HEp-2 anti-RSV activity)), less than 100 µM. In data set [4], this compound gave a CC50 at 4 days greater than 100 µM. For the same compound, the midpoint of cytotoxicity in data set [3], the CC50, lay at 32 µM.
Turning to `Nc1ncnn2c([C@@H]3O[C@@](CO)(CCl)[C@@H](O)[C@H]3O)ccc12` [Example 26, (2R,3S,4R,5S)-5-(4-aminopyrrolo[2,1-f][1,2,4]triazin-7-yl)-2-(chloromethyl)-2-(hydroxymethyl)tetrahydrofuran-3,4-diol], in data set [1] (setting [6]), the EC50 was greater than 50 µM. In addition, in data set [4], half-maximal cytotoxicity (CC50 at 4 days) was put at 42 µM. Also, the half-maximal cytotoxic concentration (CC50) at 5 days in data set [5] is greater than 53 µM. This compound also had a half-maximal cytotoxic concentration (CC50) in data set [3] greater than 57 µM.
